Measured values: patent US9695155B2, “Herbicidal substituted pyrimidinyloxy benzene compounds” (E. I. DU PONT DE NEMOURS AND COMPANY, priority 2013, dated 2017)

Columns and labels:
barnyardgrass [1] = assay: Test A preemergence; format: in vivo, Echinochloa crus-galli; details: for Barnyardgrass plant response rating (0 to 100 scale, 0 is no effect, 100 is complete control): 125 g ai/ha; for Barnyardgrass plant response rating: 500 g ai/ha, 0 to 100 scale where 0 is no effect and 100 is complete control
In short: (§1)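 Scoring: eye-based comparison with untreated controls, 0 for no effect through 100 for complete control, at about day 10. Treatments: directed soil spray preemergence; foliar spray postemergence on 2–10 cm plants at the one- to two-leaf stage. Medium: loam soil with sand.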

giant foxtail = assay: Test A preemergence; format: in vivo, Setaria faberii; details: for Foxtail, Giant plant response rating (0 to 100 scale): 125 g ai/ha; for Foxtail, Giant plant response rating: 500 g ai/ha, 0 to 100 scale where 0 is no effect and 100 is complete control
In short: as §1

wheat = assay: Test A preemergence; format: in vivo, Triticum aestivum; details: for Wheat plant response rating (0 to 100 scale): 125 g ai/ha
In short: as §1

corn = assay: Test A preemergence; format: in vivo, Zea mays; details: for Corn plant response rating (0 to 100 scale): 125 g ai/ha; for Corn plant response rating: 500 g ai/ha, 0 to 100 scale where 0 is no effect and 100 is complete control
In short: as §1

rice = assay: Test B flooded paddy test; format: in vivo, Oryza sativa; details: Flood, 250 g ai/ha; 0 to 100 scale where 0 is no effect and 100 is complete control
In short: (§2)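 Flooded to 3 cm at the 2-leaf stage, pots received compound through the paddy water and were kept at that depth under greenhouse conditions. After 13–15 days, effect was rated by eye relative to controls, 0 = none and 100 = complete control.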

sedge, umbrella = assay: Test B flooded paddy test; format: in vivo, Cyperus difformis; details: Flood, 250 g ai/ha; 0 to 100 scale where 0 is no effect and 100 is complete control
In short: as §2

Heteranthera limosa = assay: Test B flooded paddy test; format: in vivo; details: Flood, 250 g ai/ha; 0 to 100 scale where 0 is no effect and 100 is complete control
In short: as §2

barnyardgrass [2] = assay: Test B flooded paddy test; format: in vivo, Echinochloa crus-galli; details: Flood, 250 g ai/ha; 0 to 100 scale where 0 is no effect and 100 is complete control
In short: as §2

wheat, winter = assay: Test C postemergence; format: in vivo, Triticum aestivum; details: for Plant response rating (0 to 100), Wheat: 16 g ai/ha, 0 is no effect, 100 is complete control; for Wheat plant response rating: 31 g ai/ha; for Wheat plant response rating / Plant response rating, Wheat: scale 0 to 100 (0 no effect, 100 complete control)
In short: (§3)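 Whole-plant greenhouse test with surfactant-containing solvent formulation, applied preemergence to sown loam–sand pots or postemergence to 2–18 cm plants. Scored by eye 13 to 15 days on, 0–100 scale.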

galium = assay: Test C postemergence; format: in vivo, Galium aparine; details: for Plant response rating (0 to 100), Galium: 16 g ai/ha, 0 is no effect, 100 is complete control; for Galium plant response rating: 31 g ai/ha; for Galium plant response rating / Plant response rating, Galium: scale 0 to 100 (0 no effect, 100 complete control)
In short: as §3

lambsquarters = assay: Test C postemergence; format: in vivo, Chenopodium album; details: for Plant response rating (0 to 100), Lambsquarters: 16 g ai/ha, 0 is no effect, 100 is complete control; for Lambsquarters plant response rating: 31 g ai/ha; for Lambsquarters plant response rating / Plant response rating, Lambsquarters: scale 0 to 100 (0 no effect, 100 complete control)
In short: as §3

morningglory = assay: Test C postemergence; format: in vivo, Ipomoea coccinea; details: for Plant response rating (0 to 100), Morningglory: 16 g ai/ha, 0 is no effect, 100 is complete control; for Morningglory plant response rating: 31 g ai/ha; for Morningglory plant response rating / Plant response rating, Morningglory: scale 0 to 100 (0 no effect, 100 complete control)
In short: as §3

yellow nutsedge = assay: Test C postemergence; format: in vivo, Cyperus esculentus; details: for Plant response rating (0 to 100), Nutsedge, Yellow: 16 g ai/ha, 0 is no effect, 100 is complete control; for Nutsedge, Yellow plant response rating: 31 g ai/ha; for Nutsedge, Yellow plant response rating / Plant response rating, Nutsedge, Yellow: scale 0 to 100 (0 no effect, 100 complete control)
In short: as §3

ragweed = assay: Test C postemergence; format: in vivo, Ambrosia elatior; details: for Plant response rating (0 to 100), Ragweed: 16 g ai/ha, 0 is no effect, 100 is complete control; for Ragweed plant response rating: 31 g ai/ha; for Ragweed plant response rating / Plant response rating, Ragweed: scale 0 to 100 (0 no effect, 100 complete control)
In short: as §3

velvetleaf = assay: Test C postemergence; format: in vivo, Abutilon theophrasti; details: for Plant response rating (0 to 100), Velvetleaf: 16 g ai/ha, 0 is no effect, 100 is complete control; for Velvetleaf plant response rating: 31 g ai/ha; for Velvetleaf plant response rating / Plant response rating, Velvetleaf: scale 0 to 100 (0 no effect, 100 complete control)
In short: as §3

chickweed = assay: Test C postemergence; format: in vivo, Stellaria media; details: for Plant response rating (0 to 100), Chickweed: 16 g ai/ha, 0 is no effect, 100 is complete control; for Chickweed plant response rating: 31 g ai/ha; for Chickweed plant response rating / Plant response rating, Chickweed: scale 0 to 100 (0 no effect, 100 complete control)
In short: as §3

[3] = postemergence, visual rating, 13 to 15 days
[4] = 125 g ai/ha, postemergence, visual rating
[5] = Postemergence, 62 g ai/ha, 13 to 15 days

FC(F)c1cnn(-c2c(Cl)cccc2Oc2ncc(Cl)cn2)c1 [Compound 192]
Barnyardgrass plant response rating (0 to 100 scale, 0 is no effect, 100 is complete control) (barnyardgrass [1]): 60
Barnyardgrass plant response rating (barnyardgrass [1]): 100
Foxtail, Giant plant response rating (0 to 100 scale) (giant foxtail): 100
Foxtail, Giant plant response rating (giant foxtail): 100
Wheat plant response rating (0 to 100 scale) (wheat): 0
Corn plant response rating (0 to 100 scale) (corn): 0
Corn plant response rating (corn): 50
Plant response rating, Rice (rice): 0
Plant response rating, Sedge, Umbrella (sedge, umbrella): 85
Plant response rating, Ducksalad (Heteranthera limosa): 90
Plant response rating, Barnyardgrass (barnyardgrass [2]): 0
Plant response rating (0 to 100), Wheat (wheat, winter; postemergence): 0
Wheat plant response rating (wheat, winter; [3]): 0
Plant response rating, Wheat (wheat, winter; [4]): 5
Plant response rating, Wheat (wheat, winter; [5]): 5
Plant response rating (0 to 100), Galium (galium; postemergence): 60
Galium plant response rating (galium; [3]): 80
Plant response rating, Galium (galium; [4]): 85
Plant response rating, Galium (galium; [5]): 80
Plant response rating (0 to 100), Lambsquarters (lambsquarters; postemergence): 10
Lambsquarters plant response rating (lambsquarters; [3]): 25
Plant response rating, Lambsquarters (lambsquarters; [4]): 90
Plant response rating, Lambsquarters (lambsquarters; [5]): 90
Plant response rating (0 to 100), Morningglory (morningglory; postemergence): 30
Morningglory plant response rating (morningglory; [3]): 50
Plant response rating, Morningglory (morningglory; [4]): 35
Plant response rating, Morningglory (morningglory; [5]): 35
Plant response rating (0 to 100), Nutsedge, Yellow (yellow nutsedge; postemergence): 5
Nutsedge, Yellow plant response rating (yellow nutsedge; [3]): 5
Plant response rating, Nutsedge, Yellow (yellow nutsedge; [4]): 40
Plant response rating, Nutsedge, Yellow (yellow nutsedge; [5]): 0
Plant response rating (0 to 100), Ragweed (ragweed; postemergence): 10
Ragweed plant response rating (ragweed; [3]): 25
Plant response rating, Ragweed (ragweed; [4]): 45
Plant response rating, Ragweed (ragweed; [5]): 15
Plant response rating (0 to 100), Velvetleaf (velvetleaf; postemergence): 35
Velvetleaf plant response rating (velvetleaf; [3]): 60
Plant response rating, Velvetleaf (velvetleaf; [4]): 75
Plant response rating, Velvetleaf (velvetleaf; [5]): 65
Plant response rating (0 to 100), Chickweed (chickweed; postemergence): 45
Chickweed plant response rating (chickweed; [3]): 50
Plant response rating, Chickweed (chickweed; [4]): 60
Plant response rating, Chickweed (chickweed; [5]): 70

Cc1cnc(Oc2cccc(C#N)c2-n2cc(C(F)(F)F)cn2)nc1 [Compound 180]
Barnyardgrass plant response rating (0 to 100 scale, 0 is no effect, 100 is complete control) (barnyardgrass [1]): 100
Barnyardgrass plant response rating (barnyardgrass [1]): 100
Foxtail, Giant plant response rating (0 to 100 scale) (giant foxtail): 100
Foxtail, Giant plant response rating (giant foxtail): 100
Wheat plant response rating (0 to 100 scale) (wheat): 20
Wheat plant response rating (wheat; 500 g ai/ha, 0 to 100 scale where 0 is no effect and 100 is complete control): 80
Corn plant response rating (0 to 100 scale) (corn): 60
Corn plant response rating (corn): 90
Plant response rating, Rice (rice): 40
Plant response rating, Sedge, Umbrella (sedge, umbrella): 80
Plant response rating, Ducksalad (Heteranthera limosa): 80
Plant response rating, Barnyardgrass (barnyardgrass [2]): 60
Plant response rating (0 to 100), Wheat (wheat, winter; postemergence): 0
Wheat plant response rating (wheat, winter; [3]): 0
Plant response rating, Wheat (wheat, winter; [4]): 5
Plant response rating, Wheat (wheat, winter; Postemergence, 62 g ai/ha): 0
Plant response rating (0 to 100), Galium (galium; postemergence): 50
Galium plant response rating (galium; [3]): 55
Plant response rating, Galium (galium; [4]): 90
Plant response rating, Galium (galium; Postemergence, 62 g ai/ha): 60
Plant response rating (0 to 100), Lambsquarters (lambsquarters; postemergence): 35
Lambsquarters plant response rating (lambsquarters; [3]): 55
Plant response rating, Lambsquarters (lambsquarters; [4]): 85
Plant response rating, Lambsquarters (lambsquarters; Postemergence, 62 g ai/ha): 75
Plant response rating (0 to 100), Morningglory (morningglory; postemergence): 45
Morningglory plant response rating (morningglory; [3]): 65
Plant response rating, Morningglory (morningglory; [4]): 90
Plant response rating, Morningglory (morningglory; Postemergence, 62 g ai/ha): 75
Plant response rating (0 to 100), Nutsedge, Yellow (yellow nutsedge; postemergence): 0
Nutsedge, Yellow plant response rating (yellow nutsedge; [3]): 0
Plant response rating, Nutsedge, Yellow (yellow nutsedge; [4]): 10
Plant response rating, Nutsedge, Yellow (yellow nutsedge; Postemergence, 62 g ai/ha): 10
Plant response rating (0 to 100), Ragweed (ragweed; postemergence): 35
Ragweed plant response rating (ragweed; [3]): 65
Plant response rating, Ragweed (ragweed; [4]): 70
Plant response rating, Ragweed (ragweed; Postemergence, 62 g ai/ha): 80
Plant response rating (0 to 100), Velvetleaf (velvetleaf; postemergence): 30
Velvetleaf plant response rating (velvetleaf; [3]): 40
Plant response rating, Velvetleaf (velvetleaf; [4]): 85
Plant response rating, Velvetleaf (velvetleaf; Postemergence, 62 g ai/ha): 65
Plant response rating (0 to 100), Chickweed (chickweed; postemergence): 50
Chickweed plant response rating (chickweed; [3]): 60
Plant response rating, Chickweed (chickweed; [4]): 80
Plant response rating, Chickweed (chickweed; Postemergence, 62 g ai/ha): 70
